Experimental data reported in paper PMC9669016, “First-in-human phase Ia study of the PI3Kα inhibitor CYH33 in patients with solid tumors” (Nature Communications, 2022).

Tested on: patients with advanced solid tumors
Test: Phase Ia safety, tolerability, DLT/MTD (TRAEs graded by NCI-CTCAE v4.03)
Assay type: in vivo
Source text: This is a phase I clinical study (ClinicalTrials.gov identifier: NCT03544905), including a phase Ia study of oral CYH33 monotherapy in patients with advanced solid tumors, and a phase Ib study of oral CYH33 monotherapy focused on several specific tumors. […] The phase Ia study included dose-escalation stage and dose-expansion stage. […] The secondary outcomes also included evaluation of changes in PD biomarkers in response to CYH33 treatment (including proteomics of blood specimens at baseline and during treatment, immunocyte subpopulation ratios and molecular markers, cell free DNA in peripheral blood, and blood glucose). However, in compliance with the local human genetic resource regulations and procedures, peripheral blood samples were not obtained for PD biomarker analysis, therefore, only fasting blood glucose was obtained and used as a PD biomarker for CYH33 treatment. The exploratory objective was the relationship between the efficacy of CYH33 treatment and tumor biomarker status.
An accelerated titration design (ATD) and an mTPI-2 design were adopted to guide toxicity monitoring and dose escalation. The target DLT rate was 30%, with the acceptable toxicity probability interval of (0.25, 0.35). For the first two preset doses of 1 mg and 5 mg CYH33 in the ATD phase, if there were no grade ≥2 TRAEs during the DLT observation period, 100% dose escalation was allowed in the subsequent dose group. After entering the mTPI-2 phase, the SMC guidance was followed to determine the dose level, dosing frequency, and number of subjects in the next dose group, based on the previously obtained safety and PK data for that dose group. If necessary, it was permitted to add an additional dose level between two explored dose levels for further investigation.
During the phase Ia study, the safe and probably effective dose will be delivered to the expansion cohort to further investigate the safety, tolerability and efficacy of this dose level, while the dose escalation study can be continued simultaneously. If necessary, it is permitted to insert a new dose level between two explored dose levels for exploration. The subjects to be enrolled in the expansion cohort are patients with advanced solid tumors with PIK3CA gene mutations. When there are two or more dose groups at dose expansion simultaneously, the allocation ratio of the number of subjects in each dose group should be as close as possible to the ratio of ORR in each dose group. In principle, when the cumulative ORR at a certain dose level is <10%, the number of subjects in this dose group will be determined by the SMC. A total of approximately 60 patients are expected to be enrolled in the whole phase Ia study.
The secondary endpoints included preliminary efficacy assessments based on ORR, PFS, DoR, DCR, and clinical benefit rate, assessed per RECIST 1.1,PK parameters for CYH33 and its metabolite I27, and changes in PD biomarkers in response to CYH33 treatment.

[1] = all patients 1–60 mg QD, n = 51

COC(=O)Nc1cc(C(F)(F)F)c(-c2nc(N3CCOCC3)c3cc(CN4CCN(S(C)(=O)=O)CC4)cn3n2)cn1 [CYH33, methyl (5-(6-((4-(methylsulfonyl)piperazin-1-yl)methyl)−4-morpholinopyrrolo[2,1-f][1,2,4]triazin-2-yl)−4-(trifluoromethyl)pyridin-2-yl)carbamate]
Generalized oedema, Grade ≥ 3 TRAE (1–20 mg QD, n = 10): 0 n (%) | Grade ≥ 3 TRAEs in all patients (1–20 mg QD, n = 10): 2 (20.0) n (%) | Hyperglycemia, Grade ≥ 3 TRAE (1–20 mg QD, n = 10): 2 (20.0) n (%) | Hyperglycemia, all-grade TRAE (1–20 mg QD, n = 10): 7 (70.0) n (%) | Hyponatremia, all-grade TRAE (1–20 mg QD, n = 10): 0 n (%) | Mouth ulceration, Grade ≥ 3 TRAE (1–20 mg QD, n = 10): 0 n (%) | Mouth ulceration, all-grade TRAE (1–20 mg QD, n = 10): 1 (10.0) n (%) | Nausea, Grade ≥ 3 TRAE (1–20 mg QD, n = 10): 0 n (%) | Nausea, all-grade TRAE (1–20 mg QD, n = 10): 3 (30.0) n (%) | Peripheral edema, Grade ≥ 3 TRAE (1–20 mg QD, n = 10): 0 n (%) | Peripheral edema, all-grade TRAE (1–20 mg QD, n = 10): 1 (10.0) n (%) | Rash, Grade ≥ 3 TRAE (1–20 mg QD, n = 10): 0 n (%) | Rash, all-grade TRAE (1–20 mg QD, n = 10): 1 (10.0) n (%) | TRAEs leading to death (1–20 mg QD, n = 10): 0 n (%) | TRAEs leading to dose discontinuation (1–20 mg QD, n = 10): 0 n (%) | TRAEs leading to dose interruption (1–20 mg QD, n = 10): 2 (20.0) n (%) | TRAEs leading to dose reduction (1–20 mg QD, n = 10): 1 (10.0) n (%) | TRAEs occurring in ≥ 10% of patients (1–20 mg QD, n = 10): 7 (70.0) n (%) | Treatment-related serious adverse events (1–20 mg QD, n = 10): 0 n (%) | Vomiting, all-grade TRAE (1–20 mg QD, n = 10): 3 (30.0) n (%) | Weight loss, all-grade TRAE (1–20 mg QD, n = 10): 1 (10.0) n (%) | White blood cell count decreased, Grade ≥ 3 TRAE (1–20 mg QD, n = 10): 0 n (%) | recommended phase 2 dose (RP2D) (QD): 40 mg | Blood glucose increased, Grade ≥ 3 TRAE [1]: 1 (2.0) n (%) | Decreased appetite, Grade ≥ 3 TRAE [1]: 1 (2.0) n (%) | Decreased appetite, all-grade TRAE [1]: 21 (41.2) n (%) | Diabetic ketosis, Grade ≥ 3 TRAE [1]: 1 (2.0) n (%) | Diarrhea, Grade ≥ 3 TRAE [1]: 2 (3.9) n (%) | Diarrhea, all-grade TRAE [1]: 15 (29.4) n (%) | Dizziness, Grade ≥ 3 TRAE [1]: 1 (2.0) n (%) | Electrocardiogram QT prolonged, Grade ≥ 3 TRAE [1]: 1 (2.0) n (%) | Face oedema, Grade ≥ 3 TRAE [1]: 1 (2.0) n (%) | Facial edema, all-grade TRAE [1]: 8 (15.7) n (%) | Fatigue, Grade ≥ 3 TRAE [1]: 1 (2.0) n (%) | Fatigue, all-grade TRAE [1]: 9 (17.6) n (%) | Generalized oedema, Grade ≥ 3 TRAE [1]: 1 (2.0) n (%) | Grade ≥ 3 TRAEs in all patients [1]: 33 (64.7) n (%) | Hyperglycemia, Grade ≥ 3 TRAE [1]: 30 (58.8) n (%) | Hyperglycemia, all-grade TRAE [1]: 46 (90.2) n (%) | Hyponatremia, all-grade TRAE [1]: 6 (11.8) n (%) | Mouth ulceration, Grade ≥ 3 TRAE [1]: 1 (2.0) n (%) | Mouth ulceration, all-grade TRAE [1]: 6 (11.8) n (%) | Nausea, Grade ≥ 3 TRAE [1]: 1 (2.0) n (%) | Nausea, all-grade TRAE [1]: 19 (37.3) n (%) | Peripheral edema, Grade ≥ 3 TRAE [1]: 4 (7.8) n (%) | Peripheral edema, all-grade TRAE [1]: 13 (25.5) n (%) | Rash, Grade ≥ 3 TRAE [1]: 1 (2.0) n (%) | Rash, all-grade TRAE [1]: 9 (17.6) n (%) | TRAEs leading to death [1]: 0 n (%) | TRAEs leading to dose discontinuation [1]: 4 (7.8) n (%) | TRAEs leading to dose interruption [1]: 36 (70.6) n (%) | TRAEs leading to dose reduction [1]: 6 (11.8) n (%) | TRAEs occurring in ≥ 10% of patients [1]: 47 (92.2) n (%) | Treatment-related serious adverse events [1]: 6 (11.8) n (%) | Vomiting, all-grade TRAE [1]: 13 (25.5) n (%) | Weight loss, all-grade TRAE [1]: 16 (31.4) n (%) | White blood cell count decreased, Grade ≥ 3 TRAE [1]: 1 (2.0) n (%) | serious AEs nausea, vomiting, abdominal pain, dyspnea, hyperglycemia, pyrexia (each) (all patients, n = 1 each): 2.0% | dose reduction due to peripheral edema, weight loss, mouth ulceration, prolonged electrocardiogram QT (each) (all patients, n = 1 for each): 2.0% | dose reduction due to fatigue (all patients, n = 2): 4.0% | hyperglycemia leading to dose interruption (all patients, n = 32 of 51): 62.7% | patients with dose interruptions due to TRAEs (all patients, n = 36 of 51): 70.6% | Decreased appetite, all-grade TRAE (all patients, n = 51): 41.2% | Diarrhea, all-grade TRAE (all patients, n = 51): 29.4% | Facial edema, all-grade TRAE (all patients, n = 51): 15.7% | Fatigue, all-grade TRAE (all patients, n = 51): 17.6% | Hyperglycemia, Grade ≥ 3 TRAE (all patients, n = 51): 58.8% | Hyperglycemia, TRAE at any grade (all patients, n = 51): 90.2% | Hyponatremia, all-grade TRAE (all patients, n = 51): 11.8% | Mouth ulceration, all-grade TRAE (all patients, n = 51): 11.8% | Nausea, all-grade TRAE (all patients, n = 51): 37.3% | Peripheral edema, all-grade TRAE (all patients, n = 51): 25.5% | Rash, all-grade TRAE (all patients, n = 51): 17.6% | Vomiting, all-grade TRAE (all patients, n = 51): 25.5% | Weight loss, all-grade TRAE (all patients, n = 51): 31.4% | incidences of all other grade ≥3 TRAEs (all patients, n = 51): < 5% | treatment-related deaths (all patients, n = 51): No treatment-related deaths | Peripheral edema, grade 3 TRAE (all patients, n = 51 (four patients)): 7.8% | patients with dose reductions due to TRAEs (all patients, six of 51): 11.8% | patients with treatment-associated serious AEs (all patients, six of 51): 11.8% | patients who permanently discontinued CYH33 due to DLTs (all patients, three of 51): 5.9% | maximum tolerated dose (MTD) (once daily, single agent, dose-escalation stage (mTPI-2)): 40 mg
